According to article PMC12162926, “A novel strategy for identifying hepatotoxic constituents in traditional Chinese medicine using dose-normalized intracellular accumulation as a cytotoxicity indicator: a case study of Jinlingzi San” (Frontiers in Pharmacology, 2025):

Assays:
[1] = system: L-02 cells; experiment: Intracellular identification of L-02 cell-uptake components by LC–MS/MS; type: in vitro ADME, human; conditions: L-02 exposed to JLZS-containing medium 6.5 mg/mL for 2 h
Description: The powder of 25 g FT and 25 g RC was evenly blended and then refluxed twice with six-fold 50% ethanol (1: 6, w/v) for 1 h; the collected filtrate was evaporated to dryness and further dissolved in DMSO, after filtering using the 0.22-µm cellulose acetate membrane. JLZS-containing medium (6.5 mg/mL) was freshly prepared by diluting the filtrate with RPMI-1640. Likewise, RC-containing medium was freshly prepared in the same method independently.
L-02 cells were seeded on 9-cm-diameter cell culture plates; after ∼80% confluent, the cultured cells were incubated with 6.5 mg/mL JLZS-containing medium. After 2-h exposure, L-02 cells were quickly washed free of culture medium with cold PBS (−) twice and harvested with 1 mL of 0.25% trypsin-EDTA for cell isolation. The cell suspension (∼5 × 10^6 cells) was spun down, and the cells were further washed twice in cold PBS (−). Then, 200 µL of methanol was used to lyse the collected cells with vortex mixing for 1 min. The cell lysates were centrifuged at 12,000 rpm for 4 min, and 10 μL of the centrifugal supernatant was injected into the LC–MS/MS system for identified analysis.
The LC–MS/MS system consisted of a Thermo TSQ Quantum Ultra triple-quadrupole mass spectrometer equipped with an electrospray ionization source (San Jose, CA, United States). LCquan quantitation software (version 2.5.6, Thermo Fisher Scientific, Waltham, MA, USA) was used to control the LC–MS/MS system for data acquisition and analysis. Analytes and IS separation were conducted using a Waters XTerra® MS C18 column (3.0 mm × 50 mm, 5 µm) maintained at 20 °C. By injecting 5 µL samples with a flow rate of 0.2 mL/min, chromatographic separation was achieved using a mobile phase of 0.1% formic acid–water (A) and methanol (B) via gradient elution, 0.0–2.0 min, 35%–50% B; 2.0–2.1 min, 50%–55% B; 2.1–2.5 min, 55%–60% B; 2.5–14.0 min, 60% B. The analytes and IS were detected in the ESI source by polarity switching from positive for 0.0–8.0 min to negative-ion modes for 8.5–14.0 min in a single run with multiple reaction monitoring (MRM).

[2] = system: L-02 cells; experiment: Cell growth inhibition assay (CCK-8); type: cell-based, human; conditions: L-02, 24 h exposure, single compounds
[3] = system: L-02 cells; experiment: Intracellular accumulation in L-02 cells by LC–MS/MS; type: in vitro ADME, human; conditions: for Intracellular concentration: L-02, JLZS extracts 6.5 mg/mL, n = 6
[4] = parameters: method as in Gu et al., 2021; conditions: pharmacokinetic level, JLZS vs single herb; ref Gu et al., 2021; cited from earlier work
[5] = Stability of analytes in cell lysates (LC–MS/MS method validation); type: physicochemical; conditions: n=3; for Post-preparation stability RE%: 4 ℃, 24 h at autosampler; for Short-term stability RE%: 12 h at room temperature; for Long-term stability RE%: -80℃ for a month; for Freeze-thaw stability RE%: three freeze-thaw
Description: The stability of seven analytes including short-term stability (12 h at room temperature), post-preparation stability at 4 ℃ (24 h at autosampler), freeze-thaw stability (three freeze-thaw stability) and long-term stability (-80℃ for a month) was tested by analyzing three replicates at low and high QC levels during various sample storage and handling process.

CC(=O)O[C@@H]1C[C@H](O)[C@@]23CO[C@@H](O)[C@]1(C)[C@@H]2C[C@@H](O)[C@]1(C)[C@@H]3C(=O)[C@H](OC(C)=O)[C@@]2(C)[C@H](c3ccoc3)C[C@H]3O[C@]321 [TSN, toosendanin]
detection in cell lysates [1]: found in the cell lysates
IC50 (cell viability) [2]: not detected IC50 values within the set concentration range
Intracellular concentration ([3]; time 0.25 h): 10.4 ± 1.1 ng/mL
Intracellular concentration ([3]; time 0.5 h): 13.6 ± 4.0 ng/mL
Intracellular concentration ([3]; time 1 h): 38.5 ± 10.2 ng/mL
Intracellular concentration ([3]; time 1.5 h): 32.8 ± 13.6 ng/mL
Intracellular concentration ([3]; time 2 h): 20.1 ± 2.8 ng/mL
Intracellular concentration ([3]; time 3 h): 23.8 ± 4.4 ng/mL
Intracellular concentration ([3]; time 5 h): 26.4 ± 9.2 ng/mL
Intracellular concentration ([3]; time 8 h): 15.5 ± 3.4 ng/mL
exposure time at highest intracellular concentration ([3]; L-02 exposed to JLZS 6.5 mg/mL): 1 h
elimination in the JLZS group compared with the single-herb group [4]: decreased significantly
Post-preparation stability RE% ([5]; high QC level): 0.1%
Post-preparation stability RE% ([5]; low QC level): 7.6%
Short-term stability RE% ([5]; high QC level): -0.1%
Short-term stability RE% ([5]; low QC level): 8.0%
Long-term stability RE% ([5]; high QC level): 8.6%
Long-term stability RE% ([5]; low QC level): 10.2%
Freeze-thaw stability RE% ([5]; high QC level): -4.0%
Freeze-thaw stability RE% ([5]; low QC level): 6.2%
